{"source": "patent US20260345742A1", "about": "“SYNTHETIC SURFACTANTS FOR INHIBITING CORONAVIRUS INFECTION” (priority 2022, published 2026)", "key": {"[1]": {"molecular_target": "SARS-CoV-2 RBD (Severe acute respiratory syndrome coronavirus 2, UniProt P0DTC2)", "experiment": "SPR binding (Biacore T200) of SARS-CoV-2 RBD to chip-linked biotinylated B-YL", "procedure": "FIG. 3. Surface plasmon resonance (SPR) sensorgrams of rbCovid-19-RBD protein construct and human ACE2 receptor binding to immobilized B-YL peptide. The B-YL peptide was biotinylated to facilitate attachment to the Biacore chip as described in Methodology. Solutions of 1 μM recombinant protein in HBS-EP buffer (10 mM Hepes, pH 7.4, 150 mM NaCl, 3 mM EDTA, 0.005% surfactant P20) were then flowed over the respective chip-linked peptides. The concentration dependent binding of the viral RBD construct (A) and the human ACE-2 receptor (B) to the B-YL lung surfactant peptide are shown with the SPR response indicated in relative response units (RU) on the graph's Y-axis.\nOne of the best in vitro determinations of the binding of proteins and peptides to one another is by surface plasmon resonance (SPR). This technique allows the direct measurement of the binding of a peptide or protein by attaching one protein to a sensor chip surface and flowing a solution containing a second protein over the surface. The binding affinities derived from such measurements are very similar to those observed in vivo.\nThe binding affinity of the B-YL lung surfactant peptide to the coronavirus recombinant spike protein construct of SARS-CoV-2 (viral spike protein amino acid sequence) that included the Receptor Binding Domain (RBD) was measured with SPR spectroscopy using a Biacore T200 system (GE Healthcare Bio-Sciences Corp, Piscataway, NJ 08855).\nB-YL peptide binding to the recombinant SARS-CoV-2 RBD domain dissolved in a series of seven concentrations (1,000, 500, 250, 125, 62.5, 31.25 and 0 nM) in the analyte and was determined from the sensorgrams, in which arbitrary response units (RUS) are recorded as a function of time.\nIn Table 1, association and dissociation kinetic rate constants (kon, koff) and equilibrium dissociation constants (KD) were calculated from surface plasmon resonance (SPR) kinetic measurements for aqueous SARS-CoV-2 RBD expressed protein flowing past B-YL surfactant peptide on the Biacore chip. The recombinant SARS-CoV-2 RBD protein was dissolved in running buffer and was flowed past the sensor chip with a BiocoreT200 system (Methods). Kinetic rate constants and equilibrium dissociation constants were determined from curve fitting analysis of SPR traccs.\nThe binding affinities of the B-YL lung surfactant peptide to the Angiotensin-Converting Enzyme 2 (ACE-2) receptor recombinant construct (human amino acid sequence) and the coronavirus recombinant spike protein construct of Covid-19 (viral spike protein amino acid sequence) that included the Receptor Binding Domain (RBD) were measured with surface plasmon resonance (SPR) spectroscopy using a Biacore T200 system (GE Healthcare Bio-Sciences Corp, Piscataway, NJ 08855).\nThe SPR binding study was accomplished by associating the ligand (B-YL peptide) immobilized on the SPR sensor surface, and the solute containing the ACE-2 or the Covid-19 protein construct was then flowed past the sensor linked molecule. The binding of the solute to the sensor surface ligand results in an evanescent sensor response, is measured in Response Units (RU) that are proportional to the bound mass.\nIn Table 3, Association and dissociation kinetic rate constants (kon, koff) and equilibrium dissociation constants (KD) were calculated from surface plasmon resonance (SPR) kinetic measurements for aqueous RBD, and ACE2 flowing past BYL attached to a Biacore chip. Proteins were dissolved in running buffer (10 mM HEPES, 150 mM NaCl, 3 mM EDTA, 0.005% Surfactant P20, pH 7.4) and were flowed past biotin linked B-YL peptide construct on a CSM sensor chip with a Biacore system (Methodology). Kinetic rate constants and equilibrium dissociation constants were determined from curve fitting analysis of SPR traces."}, "[2]": {"molecular_target": "ACE2 (Homo sapiens, UniProt Q9BYF1)", "sequence (Q9BYF1 18-805)": "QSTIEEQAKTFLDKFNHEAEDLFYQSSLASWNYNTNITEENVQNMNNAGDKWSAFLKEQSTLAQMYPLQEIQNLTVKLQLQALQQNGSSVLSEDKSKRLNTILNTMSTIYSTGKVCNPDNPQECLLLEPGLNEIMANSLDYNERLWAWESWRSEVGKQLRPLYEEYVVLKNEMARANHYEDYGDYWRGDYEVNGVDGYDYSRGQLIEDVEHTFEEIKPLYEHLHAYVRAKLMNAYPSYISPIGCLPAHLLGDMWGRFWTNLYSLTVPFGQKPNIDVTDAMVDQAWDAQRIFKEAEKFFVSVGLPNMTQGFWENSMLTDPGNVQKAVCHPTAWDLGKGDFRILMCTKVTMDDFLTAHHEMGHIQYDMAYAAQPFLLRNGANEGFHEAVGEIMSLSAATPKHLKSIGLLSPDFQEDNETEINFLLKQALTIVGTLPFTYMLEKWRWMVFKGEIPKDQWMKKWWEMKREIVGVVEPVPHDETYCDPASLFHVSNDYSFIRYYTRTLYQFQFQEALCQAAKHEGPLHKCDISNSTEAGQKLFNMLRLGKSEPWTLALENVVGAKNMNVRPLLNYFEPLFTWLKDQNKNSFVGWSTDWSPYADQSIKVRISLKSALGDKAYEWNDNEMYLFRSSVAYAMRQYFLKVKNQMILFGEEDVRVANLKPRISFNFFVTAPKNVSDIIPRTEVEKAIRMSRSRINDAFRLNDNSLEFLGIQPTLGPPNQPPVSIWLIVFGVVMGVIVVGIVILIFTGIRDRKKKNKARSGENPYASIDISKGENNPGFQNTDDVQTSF", "experiment": "SPR binding (Biacore T200) of ACE2 to chip-linked biotinylated B-YL"}, "[3]": {"experiment": "Aqueous solution solubility", "format": "physicochemical", "conditions": "stated as the reason for biotinylation"}}, "note": "Like-named read-outs stand apart in the source and are kept apart here. Ends that are not written are not given here.", "data": [{"sequence": "FPIPLPYYWLYRALIKRIQALIPKGGRLLPQLVYRLVLRYS [B-YL]", "values": [{"measurement": "koff", "setting": "[1]", "result": "5.08 × 10^−02 1/s"}, {"measurement": "Kd", "setting": "[1]; RBD(wt) - B-YL, expt. data - SPR (Table 2)", "result": 57, "unit": "µM"}, {"measurement": "Kd", "setting": "[1]; Table 1, aqueous SARS-CoV-2-RBD over chip-associated biotinylated B-YL, HBS-EP pH 7.4, 37 °C, KD=koff/kon", "result": 56.9, "unit": "µM"}, {"measurement": "Kd", "setting": "[1]; Table 3, aqueous RBD over chip-linked B-YL, pH 7.4, 37 °C, KD=koff/kon", "result": 57, "unit": "µM"}, {"measurement": "koff", "setting": "[1]; pH 7.4", "result": 0.0508, "unit": "s⁻¹"}, {"measurement": "kon", "setting": "[1]; pH 7.4, Table 1, aqueous SARS-CoV-2-RBD over chip-associated biotinylated B-YL, HBS-EP pH 7.4, 37 °C", "result": 890, "unit": "M⁻¹ s⁻¹"}, {"measurement": "kon", "setting": "[1]; pH 7.4, Table 3, aqueous RBD over chip-linked B-YL, pH 7.4, 37 °C", "result": 892, "unit": "M⁻¹ s⁻¹"}, {"measurement": "Kd", "setting": "[2]", "result": 4.37, "unit": "µM"}, {"measurement": "koff", "setting": "[2]; pH 7.4", "result": 0.013, "unit": "s⁻¹"}, {"measurement": "kon", "setting": "[2]; pH 7.4", "result": 2980, "unit": "M⁻¹ s⁻¹"}, {"measurement": "aqueous solution solubility", "setting": "[3]", "result": "limited aqueous solution solubility"}]}]}
